Source: patent US20220347096A1, “LIPOSOMAL CANNABINOIDS AND USES THEREOF” (YISSUM RESEARCH DEVELOPMENT COMPANY OF THE HEBREW …, priority 2019, published 2022)

Assay: Plasma CBD profile and PK after IV administration
Type: in vivo
Conditions: mice; for Plasma CBD, Mean ± SD: 12 mg/kg
Protocol: CBD was extracted from plasma samples that were spiked with cannabigerol (CBG, 1 mg/ml in methanol, Sigma, Cat. C-141-1) used as internal standard (IS) followed by dilution of the plasma five-fold in acetonitrile. After vigorous vortex it was centrifuged, and the upper phase was analyzed. Final IS concentration in the samples was 100 ng/ml.
Plasma extracts were analyzed by LCMS method. Specifically, LC-MS/MS analyses were conducted on a Sciex (Framingham, Mass., USA) Triple Quad™ 5500 mass spectrometer coupled with a Shimadzu (Kyoto, Japan) UHPLC System. The concentrations were calculated based on a calibration curve of CBD in plasma at a range of 1-1,000 ng/ml having 100 ng/ml of IS.
IV formulation: The formulation used for IV administration was 10 mg/g CBD formulation solubilized in Cremophor:Ethanol 50:50 solution. This formulation was diluted 10-fold with saline prior to injection to result in 1 mg/ml post dilution concentration. The diluted formulation was used within 1 h after preparation. […]
At the time-points detailed below, 3 mice were euthanized with CO2 and terminal blood was immediately collected from the retro-orbital sinus in labeled 0.5 ml K3EDTA blood collection tubes (Mini Collect, Greiner-bio-one, Austria). The blood was centrifuged at 2000×g for 10 minutes before plasma was extracted, collected in labeled tubes and frozen at −20° C. immediately after collection. The samples were then stored at −80° C. pending analysis. […]

[1] = female, BALB/C, mouse, in vivo, IV 12 mg/kg

Work on `C=C(C)[C@@H]1CCC(C)=C[C@H]1c1c(O)cc(CCCCC)cc1O` [CBD, 2-[(1R,6R)-6-Isopropenyl-3-methylcyclohex-2-en-1-yl]-5-pentylbenzene-1,3-diol] yielded an AUC(0-inf) [1] of 5020 ng·h/mL, a C0 [1] of 9460 ng/mL and a Cmax [1] of 8860 ng/mL. For the same molecule, the Tmax [1] was 4.98 min, the clearance [1] was 39.8 mL/min/kg and the half-life [1] was 101 min. The concentration at 5 min (female, BALB/C, mouse, in vivo, IV 12 mg/kg in Cremophor:Ethanol diluted with saline, 5 min, read-out: Plasma CBD, Mean ± SD) was 8860 ng/mL, the concentration at 1 h (female, BALB/C, mouse, in vivo, IV 12 mg/kg, 1 h, read-out: Plasma CBD, Mean ± SD) was 177 ± 40 ng/mL and the concentration at 4 h (female, BALB/C, mouse, in vivo, IV 12 mg/kg, 4 h, read-out: Plasma CBD, Mean ± SD) was 35 ± 11 ng/mL. For the same molecule, the concentration at 8 h (female, BALB/C, mouse, in vivo, IV 12 mg/kg, 8 h, read-out: Plasma CBD, Mean ± SD) was 9.5 ng/mL, the AUC (female, BALB/C, mouse, in vivo, IV 12 mg/kg, read-out: AUC0—Tlast) was 5000 ng·h/mL and the Vd (female, BALB/C, mouse, in vivo, IV 12 mg/kg, read-out: Vz) was 5.79 L/kg. For the same molecule, the “AUC0—Tlast/Dose” value (IV 12 mg/kg) was 417 (hr*ng/mL)/(mg/kg), the Cmax/Dose (IV 12 mg/kg) was 738 (ng/mL)/(mg/kg) and the “Plasma CBD, Mean ± SD” value (IV 12 mg/kg in Cremophor:Ethanol diluted with saline, 5 min) was 8,856 ± 1,451 ng/ml. The “Mean plasma CBD concentration normalized to dose (±SD)” value (IV 12 mg/kg, 5 min) was 757 ± 124 ng/mL/mg/kg, the “Mean plasma CBD concentration normalized to dose (±SD)” value (IV 12 mg/kg, 1 h) was 15 ± 3.46 ng/mL/mg/kg and the “Mean plasma CBD concentration normalized to dose (±SD)” value (IV 12 mg/kg, 4 h) was 2.99 ± 0.90 ng/mL/mg/kg. For the same molecule, the “Mean plasma CBD concentration normalized to dose (±SD)” value (IV 12 mg/kg, 8 h) was 0.81 ± 0.31 ng/mL/mg/kg, the “Plasma CBD, Mean ± SD” value (IV 12 mg/kg, 8 h) was 9.50 ± 3.67 ng/mL and the “Mean plasma CBD concentration normalized to dose (±SD)” value (IV 12 mg/kg, 24 h) was “BLOD”. For the same molecule, the “Plasma CBD, Mean ± SD” value (IV 12 mg/kg, 24 h) was “below the limit of detection and BLOD”, the “Mean plasma CBD concentration normalized to dose (±SD)” value (IV 12 mg/kg, 48 h) was “BLOD” and the “Plasma CBD, Mean ± SD” value (IV 12 mg/kg, 48 h) was “below the limit of detection and BLOD”.
